Measured values as given in patent EP0263213B1, “C20 Through C26 amino steroids” (THE UPJOHN COMPANY, priority 1986, dated 1988).
Structures can show the parent of a compound that is named as a salt.

Experiments:
rat brain synaptosomes [1] = assay: Conjugated Diene Formation Assay; format: biochemical; settings: active = inhibits conjugated diene formation by 50% or more; 100 »M (or less) of drug, 100 »M hydrogen peroxide, 200 »M ferrous ammonium sulfate
Text: The formation of conjugated dienes as assayed by Braughler, J. Neurochem., 44, 1282 (1985), Bucher, Fund. Applied Tox., 3, 222 (1983) and Tein, Arch. Biochem. Biophy., 216, 142 (1982) is a standard pharmacological laboratory procedure useful for identifying compounds which inhibit lipid peroxidation. Since lipid peroxidation is involved in the pathophysiology of central nervous system trauma, compounds which inhibit conjugated diene formation are useful in treating the conditions listed below.
44, 1282 (1985). Synaptosomal suspension (10 »l) is added to 1 ml of physiological (normal) saline containing 1 % Lubrol PX (Sigma Chemical Co. St. Louis, Mo.), 100 »M hydrogen peroxide and 100 »M (or less) of the drug to be tested prepared in either absolute ethanol or water depending upon solubility. The reaction is started by the rapid addition of 200 »M ferrous ammonium sulfate is prepared in argon-purged water. The sample is rapidly mixed and the change in absorbance at 232nm is followied in a Gilford Response Spectrophotometer equipped with a rapid sampler. Due to the rapidity of the reaction, rapid addition of the iron, rapid mixing and sampling are obligatory to the accuracy of the assay. For best results absorbance readings of one/sec should be started within 5 sec following the addition of iron. The initial linear rate of absorbance change during the first 30 sec of reaction are compared with the rate of a reaction containing all reagents except synaptosomes. The difference in rates is the rate of conjugated diene formation. Rates with drug are compared to rates obtained in the absence of drug and the % inhibition is calculated. A compound that inhibits conjugated diene formation by 50% or more is considered to be "active".

rat brain synaptosomes [2] = assay: Malonyldialdehyde (MDA) Formation Assay; format: biochemical; settings: active = inhibits MDA formation by 50% or more at 200»M or less; 10 min at 37°, pH 7.0, 150 uM Fe+++ and 50 uM Fe++
Experimental: Since lipid peroxidation is involved in the pathophysiology of central nervous system trauma, compounds which inhibit MDA formation are useful in treating the conditions listed below.
While not necessary to determine MDA formation, the above assays have been modified as follows: rat brain synaptosomes are prepared as described in the Example about the conjugated diene assay, except that the final wash of the synaptosomes and final suspension are in physiological (normal) saline in which the pH has been adjusted to 7.0. The synaptosomes are incubated for 10 min at 37° in physiological (normal) saline pH 7.0 (total volume = 100 ul) containing; 10 ul synaptosomal suspension, 10% DMSO plus or minus drug, 150 uM Fe⁺⁺⁺ and 50 uM Fe++. The incubation is started by the rapid addition of iron to the otherwise complete reaction. The iron solutions are prepared fresh as ferric chloride and ferrous ammonium sulfate in argon-purged water. Following the 10 min incubation, the reaction is stopped by the addition of 500 ul ice-cold 12% trichloroacetic acid prepared in 0.5 N hydrochoric acid. Water (300 ul) is then added along with 100 ul of freshly prepared thiobarbituric acid (3.3% in 0.5N sodium hydroxide) and 10 ul of 5mM desferrioxamine. The sample is then heated in a boiling water bath for 20 minutes. The samples are cooled and centrifuged for 15 minutes at 1500 xg and the absorbance of the supernatant fraction is read at 532 nm. The % inhibition of MDA formation is calculated by dividing the absorbance of sample containing drug by the absorbance of samples incubated without drug. Reaction blanks are samples incubated in the absence of iron. A compound that inhibits MDA formation by 50% or more at a concentration of 200»M or less is considered "active".

arachidonic acid = assay: Arachidonic Acid Antagonism Assay (AAAA); format: in vivo; settings: male CF-1 mice; for arachidonic acid antagonism: active = elevates the LD50 of sodium arachidonate outside the 95% confidence interval of the control LD50, test compound IV 15 minutes before; for % of Control LD₅₀ 100mg/kg: LD50 of sodium arachidonate, IV
Experimental: Since these metabolites contribute to the pathological problems associated with stroke, spinal trauma and head injury, compounds which antagonize arachidonic acid are useful in treating stroke, spinal trauma and head injury.
While not necessary to determine arachidonic acid antagonism, the above assay has been modified as follows: Charles River male CF-1 mice weighing 18-22g are treated IV with the test compound dissolved in 1.0% Tween-80 and 0.1% hydrochloric acid in distilled water, 0.2 ml total volume. Fifteen minutes later sodium arachidonate (90% pure) in physiological (normal) saline is injected into the tail vein. The LD₅₀ is measured using the Spearman-Karber method with a log dose interval of 0.05 (N=6). Compounds which elevate the LD₅₀ outside of the 95% confidence interval of the control LD₅₀ are considered to be "active".

ACAT = assay: AcylCoA:Cholesterol Acyltransferase (ACAT) Inhibition Assay; format: cell-based
Text: ACAT esterifies arterial cholesterol which is a key reaction in the development of atherosclerosis. The procedure of Bell, Can. […] In the ACAT assay it is preferred to use Fu5AH cells, see Lipids 9, 526 (1974). According to this procedure, compounds which inhibit ACAT activity equal to, or greater than, that of chlorpromazine are considered "active".

## CC(CN1CCN(c2cc(N3CCCC3)nc(N3CCCC3)n2)CC1)[C@H]1CC[C@H]2[C@@H]3CCC4=CC(=O)C=C[C@]4(C)[C@H]3CC[C@]12C.CS(=O)(=O)O.O (stereo partly drawn) [Example 112]
Rat brain synaptosomes [1]
  inhibition of conjugated diene formation: demonstrate such activity by inhibition of conjugated dienes

## C[C@H]1C[C@H]2[C@@H]3C[C@H](F)C4=CC(=O)CC[C@]4(C)C3=CC[C@]2(C)[C@@]1(O)C(=O)CN1CCN(c2cc(N3CCCC3)nc(N3CCCC3)n2)CC1.Cl.Cl [Example 118]
Rat brain synaptosomes [2]
  inhibition of MDA formation: demonstrate such activity by inhibition of MDA formation

## C[C@]12C=CC(=O)C=C1CC[C@@H]1[C@@H]2[C@@H](O)C[C@@]2(C)[C@H]1CC[C@]2(O)C(=O)CN1CCN(c2ccccn2)CC1 [Example 25, 11β,17α-dihydroxy-21-[4-(2-pyridinyl)-1-piperazinyl]-pregna-1,4-diene-3,20-dione dihydrochloride]
Arachidonic acid
  arachidonic acid antagonism: demonstrate arachidonic acid antagonism

## C[C@]12CC[C@@H]3c4ccc(O)cc4CC[C@H]3[C@@H]1CC[C@]2(O)C(=O)CN1CCN(c2cc(N3CCCC3)nc(N3CCCC3)n2)CC1 [Example 129, 3,17α-Dihydroxy-21-[4-[2,6-bis(1-pyrrolidinyl)-4-pyrimidinyl]-1-piperazinyl]-19-norpregna-1,3,5-(10)-trien-20-one (E)-2-butenedioate 1:1 salt]
Rat brain synaptosomes [2]
  inhibition of MDA formation: demonstrate such activity by inhibition of MDA formation

## CN1CCN(c2cc(N3CCN(CC(=O)[C@@]4(O)CC[C@H]5[C@@H]6CCC7=CC(=O)CC[C@]7(C)C6=CC[C@@]54C)CC3)nc(N3CCN(C)CC3)n2)CC1.CS(=O)(=O)O.O [Example 19, 17α-Hydroxy-21-[4-[2,6-bis(4-methyl-1-piperazinyl)-4-pyrimidinyl]-1-piperazinyl]pregna-4,9(11)diene-3,20-dione methanesulfonate hydrate]
Arachidonic acid
  % of Control LD₅₀ 100mg/kg: 141%
  arachidonic acid antagonism: demonstrate arachidonic acid antagonism

## C[C@@]12C(=CC(=O)C[C@@H]1C#N)CC[C@@H]1C2=CC[C@]2(C)[C@@H](CCN3CCN(c4cc(N5CCCC5)nc(N5CCCC5)n4)CC3)CC[C@@H]12.Cl.Cl.Cl.O [Example 110]
Rat brain synaptosomes [2]
  inhibition of MDA formation: demonstrate such activity by inhibition of MDA formation

## C[C@@H]1C[C@H]2[C@@H]3CCC4=CC(=O)C=C[C@]4(C)[C@H]3[C@H](O)C[C@]2(C)[C@H]1C(=O)CN1CCN(c2cc(N3CCCC3)nc(N3CCCC3)n2)CC1 [Example 84]
Rat brain synaptosomes [1]
  inhibition of conjugated diene formation: demonstrate such activity by inhibition of conjugated dienes

## C[C@]12CCC(=O)C=C1CC[C@@H]1C2=CC[C@]2(C)[C@@H](CCN3CCN(c4cc(N5CCCC5)nc(N5CCCC5)n4)CC3)CC[C@@H]12.Cl [Example 104, 21-[4-(2,6-Bis(1-pyrrolidinyl)-4-pyrimidinyl)-1-piperazinyl]pregna-4,9(11)-dien-3-one hydrochloride]
Rat brain synaptosomes [2]
  inhibition of MDA formation: demonstrate such activity by inhibition of MDA formation

## C[C@]12CCC(=O)C=C1CC[C@@H]1[C@@H]2[C@H](O)C[C@@]2(C)[C@H]1CC[C@]2(O)C(=O)CN1CCN(c2ccc(F)cc2)CC1 [Example 29, 21-[4-(4-fluorophenyl)-1-piperazinyl]-11α,17α-dihydroxypregn-4-ene-3,20-dione dihydrochloride]
Arachidonic acid
  arachidonic acid antagonism: demonstrate arachidonic acid antagonism

## CCN(CC)c1cc(N2CCN(CC(=O)[C@@]3(O)CC[C@H]4[C@@H]5CCC6=CC(=O)CC[C@]6(C)C5=CC[C@@]43C)CC2)nc(N)n1 [Example 4, 21-[4-[2-Amino-6-(diethylamino)-4-pyrimidinyl]-1-piperazinyl]-17α-hydroxypregna-4,9(11)-diene-3,20-dione]
Rat brain synaptosomes [1]
  inhibition of conjugated diene formation: demonstrate such activity by inhibition of conjugated dienes
Arachidonic acid
  arachidonic acid antagonism: demonstrate arachidonic acid antagonism

## C[C@]12CCC(=O)C=C1CC[C@@H]1C2=CC[C@@]2(C)[C@H]1CC[C@]2(O)C(=O)CN1CCC(O)(c2ccc(C(F)(F)F)cc2)CC1 [Example 5, 17α-Hydroxy-21-[4-hydroxy-4-(4-trifluoromethyl)phenyl-1-piperidinyl]pregna-4,9(11)-diene-3,20-dione]
Rat brain synaptosomes [1]
  inhibition of conjugated diene formation: demonstrate such activity by inhibition of conjugated dienes

## CCN(CC)c1nc(N2CCCCC2)cc(N2CCN(CC(=O)[C@@]3(O)CC[C@H]4[C@@H]5CCC6=CC(=O)CC[C@]6(C)C5=CC[C@@]43C)CC2)n1.Cl.O [Example 17]
Arachidonic acid
  % of Control LD₅₀ 100mg/kg: 150%
Rat brain synaptosomes [2]
  inhibition of MDA formation: demonstrate such activity by inhibition of MDA formation
ACAT; 5 »g/ml
  % Inhibition of ACAT (5 »g/ml): 32.2%
ACAT; active = inhibits ACAT activity equal to, or greater than, that of chlorpromazine
  inhibiting ACAT: active in inhibiting ACAT

## C[C@@H]1C[C@H]2[C@@H]3CCC4=CC(=O)C=C[C@]4(C)[C@H]3CC[C@]2(C)[C@H]1C(=O)CN1CCN(c2cc(N3CCCC3)nc(N3CCCC3)n2)CC1.Cl.Cl [Example 121]
Rat brain synaptosomes [2]
  inhibition of MDA formation: demonstrate such activity by inhibition of MDA formation

## COc1cccc(N2CCN(CC(=O)[C@@]3(O)CC[C@H]4[C@@H]5CCC6=CC(=O)CC[C@]6(C)C5=CC[C@@]43C)CC2)n1.CS(=O)(=O)O [Example 22, 17α-hydroxy-21-[4-(6-methoxy-2-pyridinyl)-1-piperazinyl]pregna-4,9(11)-diene-3,20-dione monomethanesulfonate]
Arachidonic acid
  arachidonic acid antagonism: demonstrate arachidonic acid antagonism

## C[C@]12CC[C@H]3[C@@H](CCC4=CC(=O)CC[C@@]43C)[C@@H]1CC[C@@H]2CCN1CCN(c2cc(N3CCCC3)nc(N3CCCC3)n2)CC1.Cl [Example 107]
Rat brain synaptosomes [2]
  inhibition of MDA formation: demonstrate such activity by inhibition of MDA formation

## COc1ccc2c(c1)CC[C@@H]1[C@@H]2CC[C@@]2(C)[C@H]1CC[C@]2(O)C(=O)CN1CCN(c2cc(N3CCCC3)nc(N3CCCC3)n2)CC1 [Example 125]
Rat brain synaptosomes [2]
  inhibition of MDA formation: demonstrate such activity by inhibition of MDA formation

## C[C@H]1C[C@@H]2[C@H]([C@@H](O)C[C@@]3(C)[C@H]2CC[C@]3(O)C(=O)CN2CCN(c3ccccn3)CC2)[C@@]2(C)C=CC(=O)C=C12 [Example 21, 11β-17α-dihydroxy-6α-methyl-21-[4-(2-pyridinyl)-1-piperazinyl]pregna-1,4-diene-3,20-dione]
Arachidonic acid
  arachidonic acid antagonism: demonstrate arachidonic acid antagonism

## CCNc1cccnc1N1CCN(CC(=O)[C@H]2[C@H](C)C[C@H]3[C@@H]4CCC5=CC(=O)C=C[C@]5(C)C4=CC[C@@]32C)CC1.Cl [Example 127, 21-[4-[3-(Ethylamino)-2-pyridinyl]piperazinyl]-16α-methylpregna-1,4,9(11)-triene-3,20-dione hydrochloride]
Rat brain synaptosomes [2]
  inhibition of MDA formation: demonstrate such activity by inhibition of MDA formation

## C[C@]12C=CC(=O)C=C1CC[C@@H]1C2=CC[C@]2(C)[C@@H](C(=O)CN3CCN(c4cc(N5CCCC5)nc(N5CCCC5)n4)CC3)CC[C@@H]12.Cl.Cl [Example 111]
Rat brain synaptosomes [1]
  inhibition of conjugated diene formation: demonstrate such activity by inhibition of conjugated dienes
